Laboratory results from US8058306B2, “Phenyl pyrrole aminoguanidine derivatives” (Action Pharma A/S, priority 2006, dated 2011).
Several values for one entry are separate records, joined by “and”; a condition that tells them apart may be missing. Equal entries are not always repeated. Entries after “also recorded” stand apart in the source; their conditions may differ. Where two headings read alike, the source gives them in different places.

Experiment: Plasma kinetics in rat following intravenous and oral administration;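 on AUC0-∞: parameter is AUC from zero to infinity in ng·h/mL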
Type: in vivo, Sprague Dawley rats
Method: This study determined the intravenous pharmacokinetics and oral bioavailability of compound 1 of the invention (see FIG. 1A, structure no. 1), compound 2 of the invention (see FIG. 1D, structure no. 19) and compound 3 of the invention (see FIG. 1I, structure no. 53) following administration to Sprague Dawley rats at a dose level of 10 mg/kg.
Six groups of 3 male rats received either a single intravenous or single oral administration of compound 1, 2 or 3 of the invention at a dose level of 10 mg/kg. Blood samples were obtained at various times after dosing. Plasma samples were analysed for unchanged test item using a suitable LC-MS/MS method. Pharmacokinetic parameters were estimated from individual plasma concentrations.
Eighteen male rats each received either a single intravenous or a single oral administration of either compound 1, 2 or 3 at a dose level of 10 mg/kg. The formulation was orally administered to each animal by gastric gavage and intravenously administered to each animal via a tail vein. The dose was administered at a dose volume of 5 mL/kg. The formulations were administered to each animal according to the details in the following table:
Blood samples (ca 0.3 mL) were removed from the femoral vein of each animal into tubes containing lithium heparin as anticoagulant.
Blood samples were collected from 3 rats at the following times after dose administration: • 3, 6, 15, 45 min and 1.5, 2.5, 4, 6, 8, 24 h post dose. Oral Administration
Blood samples were collected from 3 rats at the following times after dose administration: • 5, 15, 45 min and 1.5, 2.5, 4, 6, 8, 24 h post dose. Processing of Blood Samples
Pharmacokinetic parameters of compound 1, 2 and 3 were derived by non-compartmental analysis using WinNonLin Pro version 5.0.1 (Pharsight 2005). The following parameters were derived, where appropriate, from the individual plasma concentration versus time profiles:
• F % The absolute oral bioavailability calculated as [AUC0-t (oral)*Dose(iv)/AUC0-t (iv)*Dose (oral)]*100 based on mean values derived after oral and intravenous administration Consideration was given to the estimation of λz and corresponding t1/2 values. Three or more points are required within the terminal phase for λz and t1/2 to be estimated. The following additional variables were tabulated to aid identification of potentially unreliable estimates of t1/2 and AUC:
Pharmacokinetic parameters were reported as geometric mean except Tmax which was reported as the median. Geometric coefficient of variation was calculated as: […]
Actual sampling times were used for all calculations of pharmacokinetic parameters. Plasma concentrations that were below the limit of quantification were taken as zero for the pharmacokinetic analysis.

[1] = intravenous 10 mg/kg, male rats, individual animals, acetate, 10 mg/kg
[2] = male, Sprague Dawley, rat, plasma, iv, 10 mg/kg, single intravenous 10 mg/kg, male rats, individual animals, read-out: Sample Concentration in plasma
[3] = male, Sprague Dawley, rat, plasma, iv, 10 mg/kg, single intravenous 10 mg/kg, male rats, mean of 3, read-out: Mean Concentration in plasma

bioavailability (Sprague Dawley, rat, plasma, 10 mg/kg oral vs intravenous, male rats, from mean AUC0-t, read-out: Mean absolute oral bioavailability): 34.8% | Between-animal variability in systemic exposure, coefficient of variation (CV) of AUC0-t (intravenous 10 mg/kg, male rats): less than 20% | AUC0-∞ [1]: 3755 ng·h/mL and 3394 ng·h/mL | AUC(0-t) [1]: 3662 ng·h/mL and 3262 ng·h/mL | C0 [1]: 5834 ng/mL and 2729 ng/mL | CL [1]: 45.15 mL/min/kg and 49.85 mL/min/kg | MRT [1]: 5.76 h | Vss [1]: 15.606 L/kg and 19.225 L/kg | t1/2 [1]: 4.87 h and 5.44 h | Systemic clearance (in words) (intravenous 10 mg/kg, rats): moderate | systemic plasma clearance (CL) as share of hepatic blood flow in rats (intravenous 10 mg/kg, hepatic blood flow 3312 mL/h/kg): approximately 82% | AUC(0-inf) (male, Sprague Dawley, rat, plasma, iv, 10 mg/kg, intravenous 10 mg/kg, male rats, Arithmetic Mean): 3780 ng·h/mL | AUC(0-t) (male, Sprague Dawley, rat, plasma, iv, 10 mg/kg, intravenous 10 mg/kg, male rats, Arithmetic Mean, read-out: AUC0-t): 3600 ng·h/mL | C0 (male, Sprague Dawley, rat, plasma, iv, 10 mg/kg, intravenous 10 mg/kg, male rats, Arithmetic Mean, read-out: C0): 4210 ng/mL | clearance (male, Sprague Dawley, rat, plasma, iv, 10 mg/kg, intravenous 10 mg/kg, male rats, Arithmetic Mean, read-out: CL (converted)): 45.3 mL/min/kg | MRT (male, Sprague Dawley, rat, plasma, iv, 10 mg/kg, intravenous 10 mg/kg, male rats, Arithmetic Mean, read-out: MRT): 6.5 h | Vd (male, Sprague Dawley, rat, plasma, iv, 10 mg/kg, intravenous 10 mg/kg, male rats, Arithmetic Mean, read-out: Vss): 17.6 L/kg | half-life (male, Sprague Dawley, rat, plasma, iv, 10 mg/kg, intravenous 10 mg/kg, male rats, Arithmetic Mean, read-out: t1/2 (converted)): 5.77 h | AUC(0-inf) (male, Sprague Dawley, rat, plasma, iv, 10 mg/kg, intravenous 10 mg/kg, male rats, Geometric mean): 3760 ng·h/mL | AUC(0-t) (male, Sprague Dawley, rat, plasma, iv, 10 mg/kg, intravenous 10 mg/kg, male rats, Geometric mean, read-out: AUC0-t): 3590 ng·h/mL | C0 (male, Sprague Dawley, rat, plasma, iv, 10 mg/kg, intravenous 10 mg/kg, male rats, Geometric mean, read-out: C0): 4020 ng/mL | clearance (male, Sprague Dawley, rat, plasma, iv, 10 mg/kg, intravenous 10 mg/kg, male rats, Geometric mean, read-out: CL (systemic plasma clearance) (converted)): 45.1 mL/min/kg | MRT (male, Sprague Dawley, rat, plasma, iv, 10 mg/kg, intravenous 10 mg/kg, male rats, Geometric mean, read-out: MRT): 6.47 h | Vd (male, Sprague Dawley, rat, plasma, iv, 10 mg/kg, intravenous 10 mg/kg, male rats, Geometric mean, read-out: Vss (mean apparent volume of distribution)): 17.5 L/kg | half-life (male, Sprague Dawley, rat, plasma, iv, 10 mg/kg, intravenous 10 mg/kg, male rats, Geometric mean, read-out: t1/2 (mean apparent terminal half-life) (converted)): 5.7 h | AUC(0-inf) (male, Sprague Dawley, rat, plasma, iv, 10 mg/kg, intravenous 10 mg/kg, male rats, Median): 3760 ng·h/mL | AUC(0-t) (male, Sprague Dawley, rat, plasma, iv, 10 mg/kg, intravenous 10 mg/kg, male rats, Median, read-out: AUC0-t): 3660 ng·h/mL | C0 (male, Sprague Dawley, rat, plasma, iv, 10 mg/kg, intravenous 10 mg/kg, male rats, Median, read-out: C0): 4070 ng/mL | clearance (male, Sprague Dawley, rat, plasma, iv, 10 mg/kg, intravenous 10 mg/kg, male rats, Median, read-out: CL (converted)): 45.1 mL/min/kg | MRT (male, Sprague Dawley, rat, plasma, iv, 10 mg/kg, intravenous 10 mg/kg, male rats, Median, read-out: MRT): 6.43 h | Vd (male, Sprague Dawley, rat, plasma, iv, 10 mg/kg, intravenous 10 mg/kg, male rats, Median, read-out: Vss): 17.9 L/kg | half-life (male, Sprague Dawley, rat, plasma, iv, 10 mg/kg, intravenous 10 mg/kg, male rats, Median, read-out: t1/2 (converted)): 5.44 h | AUC(0-inf) (male, Sprague Dawley, rat, plasma, iv, 10 mg/kg, intravenous 10 mg/kg, male rats, individual animals): 4180 ng·h/mL | AUC(0-t) (male, Sprague Dawley, rat, plasma, iv, 10 mg/kg, intravenous 10 mg/kg, male rats, individual animals, read-out: AUC0-t): 3870 ng·h/mL | clearance (male, Sprague Dawley, rat, plasma, iv, 10 mg/kg, intravenous 10 mg/kg, male rats, individual animals, read-out: CL (converted)): 40.9 mL/min/kg | MRT (male, Sprague Dawley, rat, plasma, iv, 10 mg/kg, intravenous 10 mg/kg, male rats, individual animals, read-out: MRT): 7.31 h | Vd (male, Sprague Dawley, rat, plasma, iv, 10 mg/kg, intravenous 10 mg/kg, male rats, individual animals, read-out: Vss): 17.9 L/kg | half-life (male, Sprague Dawley, rat, plasma, iv, 10 mg/kg, intravenous 10 mg/kg, male rats, individual animals, read-out: t1/2 (converted)): 7 h | concentration at 0.05 h (male, Sprague Dawley, rat, plasma, iv, 10 mg/kg, single intravenous 10 mg/kg, male rats, 0.05 h (3 min), mean of 3, read-out: Mean Concentration in plasma): 2250 ng/mL | concentration at 0.1 h [2]: 941 ng/mL | concentration at 0.1 h [3]: 1120 ng/mL | concentration at 0.25 h [2]: 589 ng/mL | concentration at 0.25 h [3]: 705 ng/mL | concentration at 0.75 h [2]: 441 ng/mL | concentration at 0.75 h [3]: 392 ng/mL | concentration at 1.5 h [2]: 347 ng/mL | concentration at 1.5 h [3]: 308 ng/mL | concentration at 2.5 h [2]: 239 ng/mL | concentration at 2.5 h [3]: 233 ng/mL | concentration at 4 h [2]: 317 ng/mL | concentration at 4 h [3]: 254 ng/mL | concentration at 6 h [2]: 140 ng/mL | concentration at 6 h [3]: 160 ng/mL | concentration at 8 h (male, Sprague Dawley, rat, plasma, iv, 10 mg/kg, single intravenous 10 mg/kg, male rats, 8 h, mean, read-out: Mean Concentration in plasma): 97 ng/mL | concentration at 24 h (male, Sprague Dawley, rat, plasma, iv, 10 mg/kg, single intravenous 10 mg/kg, male rats, 24 h, mean, read-out: Mean Concentration in plasma): 20.2 ng/mL | AUC(0-t) (male, Sprague Dawley, rat, plasma, po, 10 mg/kg, oral 10 mg/kg, male rats, Arithmetic Mean, read-out: AUC0-t): 1350 ng·h/mL
SMILES: N=C(N)NN=CC=Cc1cccn1-c1ccc(Cl)cc1 [Compound 1, [1-(4-chlorophenyl)-1H-pyrrol-2-yl-allylideneamino]guanidinium acetate]
volume of distribution compared with total body water (in words) (intravenous 10 mg/kg, rats, total body water 668 mL/kg, acetate, 10 mg/kg): exceeded the total body water; also recorded: markedly greater than that of the total body water
